{"source": "paper PMC11844072", "about": "“Novel 5,6-dichlorobenzimidazole derivatives as dual BRAFWT and BRAFV600E inhibitors: design, synthesis, anti-cancer activity and molecular dynamics simulations” (BMC Chemistry, 2025)", "key": {"HT29 cell line [1]": {"system": "HT29 cell line", "test": "Apoptosis assay (Annexin V-FITC/PI)", "type": "cell-based, human", "procedure": "As stated in the Additional file A, the populations of apoptotic and necrotic cells of HT29 cell line were detected after treatment with 10h employing Annexin V-FITC apoptosis detection kit (For further details see Additional file A). […]\nHT29: Colon Cancer was obtained from Nawah Scientific Inc., (Mokatam, Cairo, Egypt). […]\nApoptosis and necrosis cell populations are determined using Annexin V-FITC apoptosis detection kit (Abcam Inc., Cambridge Science Park, Cambridge, UK) coupled with 2 fluorescent channels flowcytometry. After treatment with test compounds for 48h, cells (10^5 cells) are collected by trypsinization and washed twice with ice-cold PBS (pH 7.4). Then, cells are incubated in dark with 0.5 ml of Annexin V-FITC/PI solution for 30 min in dark at room temperature according to manufacturer protocol. After staining, cells are injected via ACEA Novocyte™ flowcytometer (ACEA Biosciences Inc., San Diego, CA, USA) and analysed for FITC and PI fluorescent signals using FL1 and FL2 signal detector, respectively (λex/em 488/530 nm for FITC and λex/em 535/617 nm for PI). For each sample, 12,000 events are acquired and positive FITC and/or PI cells are quantified by quadrant analysis and calculated using ACEA NovoExpress™ software (ACEA Biosciences Inc., San Diego, CA,"}, "HSF cell line": {"system": "HSF cell line", "test": "Cytotoxicity on HSF normal cell line (SRB assay)", "type": "cell-based", "settings": "HSF normal human skin fibroblast; mean of three ± SD", "procedure": "The dichlorobenzimidazole derivative 10h was tested in Nawah scientific—Cairo—Egypt for its cytotoxic activity on HSF cell line as stated in the Additional file A [53, 54].\n6. Analysis of 10h on HSF normal cell line\nHuman Skin Fibroblast (HSF) was obtained from Nawah Scientific Inc., (Mokatam, Cairo, Egypt). Cells were maintained in DMEM media supplemented with […] of streptomycin, 100 units/mL of penicillin and 10% of heat-inactivated fetal bovine serum in humidified, 5% (v/v) CO2atmosphere at 37 °C. Cell viability was assessed by SRB assay. Aliquots of 100 μL cell suspension (5x10^3 cells) were in 96-well plates and incubated in complete media for 24 h. Cells were treated with another aliquot of 100 μL media containing drugs at various concentrations.\nAfter drug exposure, cells were fixed by replacing media with 150 μL of 10% TCA and incubated at 4 °C for 1 h. The TCA solution was removed, and the cells were washed 5 times with distilled water. Aliquots of 70 μL SRB solution (0.4% w/v) were added and incubated in a dark place at room temperature for 10 min. Plates were washed 3 times with 1% acetic acid and allowed to air-dry overnight. Then, 150 μL of TRIS (10 mM) was added to dissolve protein-bound SRB stain; the absorbance was measured at 540 nm using an Infinite F50 microplate reader (TECAN, Switzerland).\n6.2. Dose response curve of 10h on HSF normal cell line\nFigure 66. […]"}, "VEGFR-2": {"molecular_target": "VEGFR-2 (Homo sapiens, UniProt P35968)", "sequence (P35968 20-1356)": "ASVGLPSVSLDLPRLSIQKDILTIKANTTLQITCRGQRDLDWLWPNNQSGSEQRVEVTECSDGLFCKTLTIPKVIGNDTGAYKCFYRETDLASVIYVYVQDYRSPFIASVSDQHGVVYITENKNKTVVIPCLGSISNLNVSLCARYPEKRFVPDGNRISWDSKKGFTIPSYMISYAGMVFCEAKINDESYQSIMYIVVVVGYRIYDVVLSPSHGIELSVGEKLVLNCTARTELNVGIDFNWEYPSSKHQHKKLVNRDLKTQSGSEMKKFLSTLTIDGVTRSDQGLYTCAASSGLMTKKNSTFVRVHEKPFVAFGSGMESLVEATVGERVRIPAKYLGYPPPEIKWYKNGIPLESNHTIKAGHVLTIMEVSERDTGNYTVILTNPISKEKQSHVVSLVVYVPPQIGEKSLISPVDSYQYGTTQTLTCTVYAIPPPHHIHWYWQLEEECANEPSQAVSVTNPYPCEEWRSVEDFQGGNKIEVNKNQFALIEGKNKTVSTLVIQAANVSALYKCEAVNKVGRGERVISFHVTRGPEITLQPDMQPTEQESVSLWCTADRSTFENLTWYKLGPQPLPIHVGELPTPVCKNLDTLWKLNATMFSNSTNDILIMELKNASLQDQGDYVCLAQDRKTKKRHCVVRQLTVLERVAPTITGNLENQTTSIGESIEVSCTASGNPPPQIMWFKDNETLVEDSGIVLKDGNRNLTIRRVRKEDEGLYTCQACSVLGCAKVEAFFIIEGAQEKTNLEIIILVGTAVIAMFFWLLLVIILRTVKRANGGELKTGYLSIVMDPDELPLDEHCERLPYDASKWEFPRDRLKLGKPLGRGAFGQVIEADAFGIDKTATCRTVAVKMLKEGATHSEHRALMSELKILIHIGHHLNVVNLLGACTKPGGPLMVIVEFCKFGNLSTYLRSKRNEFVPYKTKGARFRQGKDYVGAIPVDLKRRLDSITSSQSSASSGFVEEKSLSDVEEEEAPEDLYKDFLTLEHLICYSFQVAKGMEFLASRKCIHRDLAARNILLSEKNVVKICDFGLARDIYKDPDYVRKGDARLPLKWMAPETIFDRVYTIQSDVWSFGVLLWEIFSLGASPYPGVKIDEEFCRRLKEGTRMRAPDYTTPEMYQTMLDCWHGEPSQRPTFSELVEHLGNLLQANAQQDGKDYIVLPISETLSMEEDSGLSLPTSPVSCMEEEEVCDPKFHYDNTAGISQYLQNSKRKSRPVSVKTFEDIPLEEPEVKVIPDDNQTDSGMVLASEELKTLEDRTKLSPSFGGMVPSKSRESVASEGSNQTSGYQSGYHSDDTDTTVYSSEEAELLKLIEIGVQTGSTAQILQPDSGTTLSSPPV", "test": "VEGFR-2 kinase assay (Kinase-Glo Max luminescence)", "protocol": "(§1) The inhibitory activity against different kinases was determined using kinase kits (BRAF WT\n(§2) Glo Max luminescence kinase assay kit (Promega).\n(§3) The assay was carried out according to the protocol provided by the manufacturer. A stock solution of the synthesized derivatives in 100% DMSO was prepared. Subsequently, the compounds were diluted to 10% DMSO.\n(§4) A master mixture was prepared according to the number of wells. For BRAF assay each well include 6 μl of 5x Kinase Buffer 1 + 1 μl of ATP (500 μM) + 10 μl of 5X Raf substrate + 8 μl of distilled water. 1x Kinase buffer 1 was prepared by mixing 600 μl of 5x Kinase Buffer 1 with 2400 μl water to give 3 mL. Kinases were thawed on ice and were diluted with 1x Kinase Buffer 1. […]\n(§5) The plate was incubated at 30 °C for 45 min. Subsequently, 50 μl of Kinase-Glo Max luminescence reagent was added to each well and the plate was covered with aluminum foil and incubated at room temperature for 15 min. Finally, the luminescence was recorded using multimode microplate reader. […]\n(§6) The luminescence data were analyzed as follows. The difference between luminescence intensities in the absence of kinase (Lu t) and in the presence of kinase (Lu c) was defined as 100 %\n(§7) calculated as: % activity = {(Lu t - Lu)/(Lut - Luc)} ×100%. The concentration of the test compounds required to reduce the kinase activity by 50% was determined from dose-response curves and"}, "BRAFV600E": {"molecular_target": "BRAFV600E (Homo sapiens, UniProt P15056, V600E)", "sequence (P15056 whole entry V600E)": "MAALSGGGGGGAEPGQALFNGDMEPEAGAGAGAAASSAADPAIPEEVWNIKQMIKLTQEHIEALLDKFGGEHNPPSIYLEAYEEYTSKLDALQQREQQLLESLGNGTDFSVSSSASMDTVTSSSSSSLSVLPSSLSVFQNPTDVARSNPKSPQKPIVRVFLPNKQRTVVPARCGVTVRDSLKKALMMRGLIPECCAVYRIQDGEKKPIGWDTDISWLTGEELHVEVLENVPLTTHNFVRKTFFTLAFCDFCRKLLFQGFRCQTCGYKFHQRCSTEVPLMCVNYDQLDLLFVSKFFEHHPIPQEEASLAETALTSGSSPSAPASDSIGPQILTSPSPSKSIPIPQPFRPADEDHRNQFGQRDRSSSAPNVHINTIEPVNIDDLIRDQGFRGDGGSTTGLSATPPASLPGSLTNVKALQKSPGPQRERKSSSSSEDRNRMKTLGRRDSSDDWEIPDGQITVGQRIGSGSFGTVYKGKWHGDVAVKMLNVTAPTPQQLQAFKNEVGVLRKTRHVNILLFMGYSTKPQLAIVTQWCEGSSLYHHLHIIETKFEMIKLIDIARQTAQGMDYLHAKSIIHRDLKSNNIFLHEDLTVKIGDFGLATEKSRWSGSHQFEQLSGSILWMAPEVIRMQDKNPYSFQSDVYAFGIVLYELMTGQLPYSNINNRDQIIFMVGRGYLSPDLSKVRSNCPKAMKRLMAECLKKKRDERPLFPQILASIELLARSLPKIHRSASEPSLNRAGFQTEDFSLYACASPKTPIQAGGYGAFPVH", "test": "BRAFV600E kinase assay kit (Kinase-Glo Max luminescence)", "protocol": "as §1, §2, §3, §4, §5, §6, §7"}, "HT29 cell line [2]": {"system": "HT29 cell line", "test": "Cell cycle analysis (PI flow cytometry)", "type": "cell-based, human", "procedure": "7. Analysis of cell cycle distribution\nHT29: Colon Cancer was obtained from Nawah Scientific Inc., (Mokatam, Cairo, Egypt). Cells were maintained in DMEM media supplemented with […] of streptomycin, 100 units/mL of penicillin and 10% of heat-inactivated fetal bovine serum in humidified, 5% (v/v) CO 2 atmosphere at 37 °C. After treatment with test compound 8m for 48h, cells (10^5 cells) are collected by trypsinization and washed twice with ice-cold PBS (pH 7.4). Cells are re-suspended in two milliliters of 60% ice-cold ethanol and incubated at 4 °C for 1h for fixation. Fixed cells are washed twice again with PBS (pH 7.4) and re-suspended in 1 mL of PBS containing 50 μg/mL RNAase A and 10 μg/mL propidium iodide (PI). After 20 min of incubation in dark at 37 °C, cells are analyzed for DNA contents using flow cytometry analysis using FL2 (λex/em 535/617 nm) signal detector (ACEA Novocyte™ flowcytometer, ACEA Biosciences Inc., San Diego, CA, USA). For each sample, 12,000 events are acquired. Cell cycle distribution is calculated using ACEA NovoExpress™ software (ACEA Biosciences Inc., San Diego, CA, USA). […]"}, "FGFR-1": {"molecular_target": "FGFR-1 (Homo sapiens, UniProt P11362)", "sequence (P11362 22-822)": "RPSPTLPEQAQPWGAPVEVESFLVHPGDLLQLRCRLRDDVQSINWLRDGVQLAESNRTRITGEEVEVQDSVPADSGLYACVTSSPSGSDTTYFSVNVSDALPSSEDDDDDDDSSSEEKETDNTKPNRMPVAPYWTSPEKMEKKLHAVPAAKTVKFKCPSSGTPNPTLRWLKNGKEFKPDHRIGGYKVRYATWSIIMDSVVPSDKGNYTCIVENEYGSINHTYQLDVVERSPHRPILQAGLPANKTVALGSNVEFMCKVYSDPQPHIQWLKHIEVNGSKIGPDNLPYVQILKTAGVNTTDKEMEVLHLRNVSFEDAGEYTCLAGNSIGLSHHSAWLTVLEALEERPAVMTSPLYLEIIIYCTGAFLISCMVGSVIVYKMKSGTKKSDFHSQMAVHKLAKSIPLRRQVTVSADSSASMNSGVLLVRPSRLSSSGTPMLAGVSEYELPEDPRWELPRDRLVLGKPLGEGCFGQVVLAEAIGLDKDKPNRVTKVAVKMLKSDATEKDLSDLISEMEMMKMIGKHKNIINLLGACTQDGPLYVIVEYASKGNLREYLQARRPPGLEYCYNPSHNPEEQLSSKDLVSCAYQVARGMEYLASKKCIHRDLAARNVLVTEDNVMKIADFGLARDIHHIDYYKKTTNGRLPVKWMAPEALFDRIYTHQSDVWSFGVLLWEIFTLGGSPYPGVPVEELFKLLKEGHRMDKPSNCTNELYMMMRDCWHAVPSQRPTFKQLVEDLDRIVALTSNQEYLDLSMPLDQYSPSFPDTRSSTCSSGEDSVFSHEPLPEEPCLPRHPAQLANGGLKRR", "test": "FGFR-1 kinase assay (Kinase-Glo Max luminescence)", "protocol": "as §1, §2, §3, §4, §5, §6, §7"}, "[3]": {"settings": "HT29, at its GI50 concentration, 48h"}, "[4]": {"settings": "HT29, 10h at its GI50 concentration, 48h"}}}
{"smiles": "COC(=O)COc1ccc(C=NNC(=O)Cn2c(-c3ccc(OC)cc3)nc3cc(Cl)c(Cl)cc32)cc1", "note": "[Compound 10h, Methyl-2-(4-((2-(2-(5,6-dichloro-2-(4-methoxyphenyl)-1H-benzo[d]imidazol-1-yl)acetyl)hydrazono)methyl)phenoxy)acetate]", "values": [{"measurement": "% of cells in early apoptosis (Q2-4)", "setting": "HT29 cell line [1]; [3]", "result": 2.29, "unit": "%"}, {"measurement": "% of cells in late apoptosis (Q2-2)", "setting": "HT29 cell line [1]; [3]", "result": 17.56, "unit": "%"}, {"measurement": "% of necrotic cells (Q2-1)", "setting": "HT29 cell line [1]; [3]", "result": 3.44, "unit": "%"}, {"measurement": "% of viable cells (Q2-3)", "setting": "HT29 cell line [1]; [3]", "result": 76.71, "unit": "%"}, {"measurement": "total % of the cells in the apoptotic phases (Early and late)", "setting": "HT29 cell line [1]; [3]", "result": 19.85, "unit": "%"}, {"measurement": "apoptosis induction", "setting": "HT29 cell line [1]; HT29 colon cancer cell line", "result": "induced apoptosis"}, {"measurement": "IC50", "setting": "HSF cell line", "result": "> 100", "unit": "µM"}, {"measurement": "IC50", "setting": "VEGFR-2", "result": "1.52 ± 0.14", "unit": "µM"}, {"measurement": "IC50", "setting": "BRAFV600E", "result": "2.76 ± 0.15", "unit": "µM"}, {"measurement": "%G0/G1", "setting": "HT29 cell line [2]; [4]", "result": 62.69, "unit": "%"}, {"measurement": "%G2/M", "setting": "HT29 cell line [2]; [4]", "result": 19.26, "unit": "%"}, {"measurement": "%S", "setting": "HT29 cell line [2]; [4]", "result": 18.04, "unit": "%"}, {"measurement": "%Sub-G1", "setting": "HT29 cell line [2]; [4]", "result": 10.45, "unit": "%"}, {"measurement": "effect on cell cycle progression", "setting": "HT29 cell line [2]; HT29 colon cancer cell line", "result": "arrested cell cycle progression in HT29 colon cancer cell line at G2/M phase"}, {"measurement": "IC50", "setting": "FGFR-1", "result": "> 10", "unit": "µM"}]}
